From patent US20150250172A1, “USE OF ANTHRANILAMIDE COMPOUNDS IN SOIL AND SEED TREATMENT APPLICATION METHODS” (BASF SE, priority 2012, published 2015)

Experiments:
[1] = test system: Black Cutworm (Agrotis ipsilon); experiment: whole plant or invertebrate; format: in vivo; conditions: 72 h, 5 ppm a.i./soil (w/w), second-instar larvae, 3 days after infestation, read-out: mortality in comparison with untreated controls
[2] = test system: western corn rootworm (Chrysomelidae: Diabrotica virgifera virgifera); experiment: Plant emergence, shoot height and root mass, corn seed treatment against western corn rootworm (B.2.2); format: in vivo; conditions: for % Control (Based on root mass relative to infested and uninfested control) / % Control (Based on shoot height relative to infested and uninfested control) / Mean Root Mass / Mean Shoot Height: 7 days after infestation
Experimental: B.2.2 Plant Emergence, Shoot Height and Root Mass in Treatment Against Western Corn Rootworm (Chrysomelidae: Diabrotica virgifera virgifera). The compounds according to the invention, in formulated form, and other diamide compounds (chlorantraniliprole: Altacor® and Coragen®) were tested for activity against western corn rootworm. Pots were filled with soil mixture (1:1 loamy sand:sand) and watered prior to treatment and planting. Formulations were diluted in distilled water and then applied to 20 g corn seed in a volume of 188 μl in a Hege 11 liquid seed treater and spun for 30 s. One seed was planted per pot 1-3 days after treatment. Five replicates (pots) were prepared for each treatment. Pots were arranged in a randomized complete block design in the greenhouse and top watered daily. At 5-6 days after planting (DAP), 12 western corn rootworm larvae (2nd instar) were infested in each pot. After infestation, pots were maintained in a growth chamber (26° C., 10 hours light:14 hours dark) and bottom-watered as needed. Plant emergence and shoot phytotoxicity were evaluated 5 DAP. Shoot height and fresh root mass were evaluated 7 days after infestation (DAI).

[3] = test system: Western Corn Rootworm (Diabrotica virgifera virgifera); experiment: whole plant or invertebrate; format: in vivo; conditions: 72 h, 50 ppm a.i./soil (w/w), second-instar larvae, 3 days after infestation, read-out: mortality in comparison with untreated controls
[4] = test system: seedcorn maggot (Anthomyiidae: Delia platura); experiment: Root length of cucumber in treatment against seedcorn maggot (B.2.1); conditions: 9 days after treatment, 7 days after infestation; for % Control (Relative to infested and uninfested solvent blank): cucumber root length; for Mean Root Length: cucumber
[5] = Table EXP-B.2.2-1, 0.5 g ai/kg seed, 13 days after planting
[6] = Table EXP-B.2.2-1, 1.0 g ai/kg seed, 13 days after planting
[7] = Table EXP-B.2.2-1, corn seed treatment, 0.5 g ai/kg seed
[8] = Table EXP-B.2.2-1, corn seed treatment, 1.0 g ai/kg seed
[9] = Table EXP-B.2.2-2, 0.5 g ai/kg seed, 12 days after planting
[10] = Table EXP-B.2.2-2, 1.0 g ai/kg seed, 12 days after planting
[11] = Table EXP-B.2.2-2, corn seed treatment, 0.5 g ai/kg seed
[12] = Table EXP-B.2.2-2, corn seed treatment, 1.0 g ai/kg seed
[13] = Table EXP-B.2.2-2, 1.5 g ai/kg seed, 12 days after planting

Compound	mortality at 5 ppm [1] [%]	% Control (Based on root mass relative to infested and uninfested control) [2, 5] [%]	% Control (Based on shoot height relative to infested and uninfested control) [2, 5] [%]	Mean Root Mass [2, 5] [g]	Mean Shoot Height [2, 5] [cm]	% Control (Based on root mass relative to infested and uninfested control) [2, 6] [%]	% Control (Based on shoot height relative to infested and uninfested control) [2, 6] [%]	Mean Root Mass [2, 6] [g]	Mean Shoot Height [2, 6] [cm]	Plant Emergence (%) 5 days after planting [2, 7] [%]	Plant Emergence (%) 5 days after planting [2, 8] [%]	% Control (Based on root mass relative to infested and uninfested control) [2, 9] [%]	% Control (Based on shoot height relative to infested and uninfested control) [2, 9] [%]	Mean Root Mass [2, 9] [g]	Mean Shoot Height [2, 9] [cm]	% Control (Based on root mass relative to infested and uninfested control) [2, 10] [%]	Plant Emergence (%) 5 days after planting [2, 11] [%]	mortality at 50 ppm [3] [%]	% Control (Relative to infested and uninfested solvent blank) ([4]; rate 1 ppm) [%]	Mean Root Length ([4]; rate 1 ppm) [cm]	further results
CCS(CC)=NC(=O)c1cc(Cl)cc(C)c1NC(=O)c1cc(C(F)(F)F)nn1-c1ncccc1Cl [Compound I-11, 2-(3-chloro-2-pyridyl)-N-[2-methyl-4-chloro-6-[(diethyl-λ^4-sulfanylidene)carbamoyl]phenyl]-5-(trifluoromethyl)pyrazole-3-carboxamide]	> 70	100	36	0.680	26.7	100	100	0.678	33.8	100	100	12	49	0.490	27.3	48	100	> 70	–	–	% Control (Based on shoot height relative to infested and uninfested control) [2, 10]: 100%; Mean Root Mass [2, 10]: 0.631 g; Mean Shoot Height [2, 10]: 33.8 cm; Plant Emergence (%) 5 days after planting [2, 12]: 100%
CCS(CC)=NC(=O)c1cc(Cl)cc(Cl)c1NC(=O)c1cc(C(F)(F)F)nn1-c1ncccc1Cl [Compound I-16, 2-(3-chloro-2-pyridyl)-N-[2,4-dichloro-6-[(diethyl-λ^4-sulfanylidene)carbamoyl]phenyl]-5-(trifluoromethyl)pyrazole-3-carboxamide]	> 70	37	76	0.541	30.2	40	58	0.547	28.6	100	100	38	100	0.590	35.3	68	100	> 70	100	11.0	% Control (Based on shoot height relative to infested and uninfested control) [2, 10]: 83%; Mean Root Mass [2, 10]: 0.705 g; Mean Shoot Height [2, 10]: 31.2 cm; Plant Emergence (%) 5 days after planting [2, 12]: 100%
Cc1cc(Cl)cc(C(=O)N=S(C(C)C)C(C)C)c1NC(=O)c1cc(C(F)(F)F)nn1-c1ncccc1Cl [Compound I-21, 2-(3-chloro-2-pyridyl)-N-[2-methyl-4-chloro-6-[(bis-2-propyl-λ^4-sulfanylidene)carbamoyl]phenyl]-5-(trifluoromethyl)pyrazole-3-carboxamide]	> 70	100	49	0.688	27.8	100	69	0.701	29.6	100	100	33	86	0.570	31.6	–	100	> 70	–	–	% Control (Based on root mass relative to infested and uninfested control) [2, 13]: 40%; % Control (Based on shoot height relative to infested and uninfested control) [2, 13]: 83%; Mean Root Mass [2, 13]: 0.598 g; Mean Shoot Height [2, 13]: 31.2 cm; Plant Emergence (%) 5 days after planting ([2]; Table EXP-B.2.2-2, corn seed treatment, 1.5 g ai/kg seed): 100%
CC(C)S(=NC(=O)c1cc(Cl)cc(Cl)c1NC(=O)c1cc(C(F)(F)F)nn1-c1ncccc1Cl)C(C)C [Compound I-26, 2-(3-chloro-2-pyridyl)-N-[2,4-dichloro-6-[(bis-2-propyl-λ^4-sulfanylidene)carbamoyl]phenyl]-5-(trifluoromethyl)pyrazole-3-carboxamide]	> 70	–	–	–	–	–	–	–	–	–	–	–	–	–	–	–	–	> 70	–	–	–
CNC(=O)c1cc(Cl)cc(C)c1NC(=O)c1cc(Br)nn1-c1ncccc1Cl [chlorantraniliprole]	–	–	–	–	–	–	–	–	–	–	–	–	–	–	–	–	–	–	49	8.4	% Control (Relative to infested and uninfested solvent blank) ([4]; rate 10 ppm): 63%; Mean Root Length ([4]; rate 10 ppm): 9.0 cm
CNC(=O)c1cc(C#N)cc(C)c1NC(=O)c1cc(Br)nn1-c1ncccc1Cl [cyantraniliprole]	–	–	–	–	–	–	–	–	–	–	–	–	–	–	–	–	–	–	19	7.1	% Control (Relative to infested and uninfested solvent blank) ([4]; rate 10 ppm): 93%; Mean Root Length ([4]; rate 10 ppm): 10.3 cm
